Laboratory results from patent US9066947B2, “Indolyl-substituted pyrazino[1,2-b]isoquinolines for cancer treatment” (Everest Biosciences, Inc., priority 2009, dated 2015).

Key:
[1] = Basic toxicity study in healthy mice; assay type: in vivo; details: for cage-side observations (food consumption, daily activities, toxic effect) / histology of livers and kidney: 13 days
Method: (§1) For the assessment of toxicity of Substance X, healthy mice were treated with Substance X by intravenous injection at a dose of 100 mg/kg or 200 mg/kg once every other day for 13 days. Body weight of each mouse was measured periodically from Day 1 to Day 13 of the treatment. Cage-side observations including: mortality, moribundity, food consumption and activities were performed once every other day. Blood samples were taken on Day 1 and Day 13 for measurement of blood cell counts. To assess toxicity of Substance X on mice with tumors, mice bearing subcutaneous PC-3 tumors were treated with Substance X at a high dose of 200 mg/kg once every other day for 19 days. Body weight was measured and cage-side observations were performed once every other day. Lymph node, liver, lung, spleen and femurs were removed from each mouse and were examined. Toxicity of Substance X was also assessed in tumor-bearing mice treated with 80 mg/kg of Substance X daily as described above.

[2] = test system: PC-3 prostate cancer cells; assay: Cell proliferation assay (trypan blue viable cell count) and IC50 determination; assay type: cell-based, human; details: PC-3 cells
Method: All new synthesized compounds and Etoposide were first dissolved in 100% DMSO at initial concentration of 100 mM, and then diluted at final concentration of 200 uM in culture medium. Commercial form of Avastin (25 mg/ml) was diluted to appropriate concentrations in culture medium.
Hormone-independent and metastatic PC-3 prostate cancer cells were purchased from the American Type Culture Collection (Manassas, Va., USA) and cultured in RPMI-1640 supplemented with 10% fetal bovine serum. Etoposide was purchased from Sigma, Avastin from Roche.
For cell counting a total of 6×10^4 cells at a density of 0.3×10^6/ml were seeded in 96-well plate. The cells were treated with compounds, Etoposide or Avastin as positive controls at 1 uM, 5 uM, 10 uM, 20 uM, 50 uM, 100 uM for 48 hours. For Avastin 5 uM, 20 uM and 50 uM concentrations were used. The cells were labeled with trypan blue and the viable cells were quantified.

[3] = Safety in PC-3 tumor-bearing xenograft mice; assay type: in vivo; details: PC-3 tumor-bearing mice, 40 mg/kg daily for 30 days
Method: as §1
We then tested the high dose of Substance X in PC-3 xenograft mice, thereby mimicking its effect on prostate cancer patients. We generated mouse xenograft of human PC-3 tumors by subcutaneous implantation of tumor cells into nude mice. We further tested safety of the dose of 40 mg/kg which generated significant anti-tumor activity in the xenograft mouse model.

PC-3 tumors [4] = assay: PC-3 prostate cancer xenograft mouse model of tumor growth and metastasis; assay type: in vivo, athymic NMRI nude mice
From the text: Athymic NMRI nude mice between 6-8 weeks old (Taconic; Bomholt, Denmark) were used. Prostate cancer xenograft mouse model was created by implanting hormone-independent PC3 tumor cells subcutaneously into athymic nude mice as previously described (Wegiel B, Bjartell A, Tuomela J, et al.: Multiple cellular mechanisms related to cyclin Al in prostate cancer invasion and metastasis. Journal of the National Cancer Institute 100: 10221036, 2008).
PC-3 cells were purchased from American Type Culture Collection (Manassas, V A) and cultured in RPMI-1640 supplemented with 10% Fetal Bovine Serum. PC-3 cells at 1×10^6/per mouse were used. The mice were divided into three groups (6 mice per group). The first group allowed tumors to grow between 170-400 mm^3 in size before starting the treatment. The second group allowed tumors to grow between 550-650 mm^3 in size before starting the treatment. The third group allowed tumors to grow between 700-800 mm^3 in size before starting the treatment. The tumor diameters were measured twice weekly using calipers. The tumor volumes were calculated using an equation of a*(b2/2) where a and b represent the length and width of the tumor, respectively.
The treatment of the compound of Example 1 (also referred to herein as “Substance X”) or PBS containing 5% DMSO (vehicle) as Control was started when tumors reached the desired size as described above. In the first experimental setting, Substance X was administered intravenously once every other day. In the second experimental setting, Substance X was administrated orally once every other day. Tumor growth was assessed periodically as described in Results. The mice were sacrificed after treatment by euthanization via isofluorene inhalation. Lymph node, liver, lung, spleen and femurs were removed from each mouse. Half of the tumor tissues were used for histology and immunohistochemical analysis. For histology analysis, tissues were fixed in 4% paraformaldehyde and embedded in paraffin. The sections were stained with hematoxylineosin (H&E) or imunohistochemical stained with antibodies and analyzed under an optical microscope. The other half of the tissues were used for protein analysis and thus were snapfrozen in liquid nitrogen. The body weights of the mice on the first and last day of the treatment were collected and compared. Tumor invasion and metastasis were examined in various tissues from the sacrificed mice.
For a comparison study, mice with tumors at 190-250 mm^3 in size were treated with the cytotoxic drug Etoposide (Sigma) at a dose of 20 mg/kg via IV injection once every other day. The tumor size was measured as described in the Results. Three mice were treated with Etoposide or the vehicle as Control. The mice were sacrificed and the tissues were collected as described above.

PC-3 tumors [5] = assay: as above; assay type: in vivo, athymic NMRI nude mice; details: tumors 500-600 mm3 at start, 40 mg/kg intravenous injection, day 20 (FIG. 2)
VEGF receptor 2 = assay: Immunohistochemical analysis of VEGF receptor 2 expression in PC-3 xenograft tumors; assay type: in vivo, human; details: versus Control mice (FIG. 5)
Method: (§2) FIG. 5: Effect of Substance X on Expression of VEGF and VEGF Receptor 2 Immunohistochemical analysis of VEGF and VEGF receptor 2 was performed in tumors from the Control mice and the mice treated with Substance X. The representative pictures are shown. Tumor sections (Control) or (Substance X) were stained with antibody against human VEGF and VEGF Receptor 2.
(§3) The treatment of the compound of Example 1 (also referred to herein as “Substance X”) or PBS containing 5% DMSO (vehicle) as Control was started when tumors reached the desired size as described above. In the first experimental setting, Substance X was administered intravenously once every other day. […] Tumor growth was assessed periodically as described in Results. […] The sections were stained with hematoxylineosin (H&E) or imunohistochemical stained with antibodies and analyzed under an optical microscope. […]
(§4) Immunohistochemistry on tumor tissues was performed as previously described (Wegiel B, Bjartell A, Ekberg J, Gadaleanu V, Brunhoff C and Persson J L: A role for cyan AI in mediating the autocrine expression of vascular endothelial growth factor in prostate cancer. Oncogene 24: 6385-6393, 2005) by using antibodies to human CD-31 (Dako, Goistrup, Denmark A/S). […] For analysis of tumor angiogenesis, tumor sections stained with antibody against CD3I were examined and quantified. […]

VEGF = assay: Immunohistochemical analysis of VEGF expression in PC-3 xenograft tumors; assay type: in vivo, human; details: versus Control mice (FIG. 5)
Method: as §2, §3, §4

CD31 = assay: Quantification of angiogenesis by CD31 immunohistochemistry in PC-3 xenograft tumors; assay type: in vivo, human; details: versus Control tumors (FIG. 6)
Method: B. Immunohistochemical analysis of tumors from the Control mice and mice treated with Substance X for the expression of CD31. Tumor sections (Control) or (Substance X) were stained with antibody against CD31. (B). Regions of high vascular density at centre or the edge areas within the tumors were examined. The number of CD31-positive pixels per microscopic field was recorded. At least two sections per tumor and three views per section were determined. The statistical T-test was performed and was two-sided and P value less than 0.05 was considered to be statistically significant, P value less than 0.01 is labelled as two asterisks.
Immunohistochemistry on tumor tissues was performed as previously described (Wegiel B, Bjartell A, Ekberg J, Gadaleanu V, Brunhoff C and Persson J L: A role for cyan AI in mediating the autocrine expression of vascular endothelial growth factor in prostate cancer. Oncogene 24: 6385-6393, 2005) by using antibodies to human CD-31 (Dako, Goistrup, Denmark A/S). Antirabbit peroxidase-conjugated secondary antibodies were applied. Diaminobenzidine colorimetric reagent solution (Dako) was used. […] For analysis of tumor angiogenesis, tumor sections stained with antibody against CD3I were examined and quantified. […] The number of CD31-positive pixels per microscopic field was recorded. At least two sections per tumor and three views per section were determined.

[6] = healthy mice, 100 mg/kg i.v. once every other day

## CN1CC(=O)N2[C@H](c3c[nH]c4ccccc34)c3cc4c(cc3C[C@H]2C1=O)OCO4 [Substance X, (5S,9aS)-5-(1H-Indol-3-yl)-8-methyl-7,8,9a,10-tetrahydro-5H-1,3-dioxa-5a,8-diaza-cyclopenta[b]anthracene-6,9-dione]
[1]; 200 mg/kg once every other day
  cage-side observations (food consumption, daily activities, toxic effect): no abnormality on food consumption and daily activities, or any observable toxic effect
  histology of livers and kidney: no abnormality in histology
[1]; 200 mg/kg once every other day, 13 days (FIG. 1B)
  body weights: steady throughout the study period
[1]; [6]
  cage-side observations (food consumption, daily activities, toxic effect): no abnormality on food consumption and daily activities, or any observable toxic effect
  histology of livers and kidney: no abnormality in histology
[1]; healthy mice, 100 mg/kg i.v. once every other day, 13 days (FIG. 1A)
  change in body weight: no significant change in body weight
[2]; Homo sapiens, viable cells after 48 hours, read-out: IC50 for cell growth inhibition
  IC50: 30 µM
[2]; 48 hours
  concentration from which statistically significant cell growth inhibition started: 5 µM
[3]
  body weights: remained constant throughout the period of treatment
  cage-side observations (food consumption, daily activities, toxic effect): no abnormality on food consumption and/or daily activities, or any other observable toxic effect
  histology of livers and kidney: no abnormality in histology
PC-3 tumors [4]; 40 mg/kg i.v. for 20 days, from day 21 40 mg/kg oral, versus continuous i.v.
  tumor size after switch to oral administration: slightly larger tumor size than the mice treated by continuous intravenous injection
PC-3 tumors [4]; 40 mg/kg intravenous injection for 30 days
  tumor growth (large and invasive tumors, longer treatment): inhibited throughout the treatment period and the tumors shrank significantly at the end of the treatment
PC-3 tumors [4]; 40 mg/kg, end of study, histology and immunohistochemical analysis
  infiltration of tumor cells into secondary sites (metastasis): no infiltration of tumor cells into secondary sites could be detected
PC-3 tumors [4]; VEGF receptor 2 stained sections, versus Control mice (FIG. 6A)
  size of tumors in whole-tumor histology sections: smaller than that from the Control mice
PC-3 tumors [4]; inferred from tumor size after oral versus intravenous 40 mg/kg
  oral bioavailability: orally bioavailable, yet the oral bioavailability is lower than intravenous injection
PC-3 tumors [4]; tumors 190-240 mm3 at start, 20 mg/kg intravenously, 21 days
  tumor growth: tumor shrank
PC-3 tumors [4]; tumors 300-350 mm3 at start, 40 mg/kg oral (FIG. 3)
  tumor growth, oral administration throughout: able to inhibit the tumor growth, although the effect was not as strong as intravenous injection
PC-3 tumors [4]; tumors about 250 mm3, IV once every other day for 14 days, Etoposide 20 mg/kg, Substance X 40 mg/kg (FIG. 4)
  tumor growth, comparison of Etoposide and Substance X: stronger inhibitory effect on tumors as compared to Etoposide
PC-3 tumors [5]
  tumor growth (large tumors): did not grow but showed a slight decrease in size
VEGF receptor 2
  expression of VEGFR2 in tumors: significantly down-regulated
VEGF
  expression of VEGF in tumors: significantly down-regulated
CD31
  CD31 expression and number of CD31-expressing vessels in tumors: statistically significant decrease
